Columns and labels:
[1] = biological target: T1, human CD73 (Homo sapiens, UniProt P21589); assay: Inhibitor activity against CD73 in cell based assay (CD73 expressing CHO-K1 cells); conditions: CHO-K1 cells expressing human CD73, 150 μM AMP, 4 hours of incubation; read-out: CHO-K1 CELL_VARIANT: CD73 IC50
T1 construct: expressed in transfected cells
T1 sequence (P21589 27-549): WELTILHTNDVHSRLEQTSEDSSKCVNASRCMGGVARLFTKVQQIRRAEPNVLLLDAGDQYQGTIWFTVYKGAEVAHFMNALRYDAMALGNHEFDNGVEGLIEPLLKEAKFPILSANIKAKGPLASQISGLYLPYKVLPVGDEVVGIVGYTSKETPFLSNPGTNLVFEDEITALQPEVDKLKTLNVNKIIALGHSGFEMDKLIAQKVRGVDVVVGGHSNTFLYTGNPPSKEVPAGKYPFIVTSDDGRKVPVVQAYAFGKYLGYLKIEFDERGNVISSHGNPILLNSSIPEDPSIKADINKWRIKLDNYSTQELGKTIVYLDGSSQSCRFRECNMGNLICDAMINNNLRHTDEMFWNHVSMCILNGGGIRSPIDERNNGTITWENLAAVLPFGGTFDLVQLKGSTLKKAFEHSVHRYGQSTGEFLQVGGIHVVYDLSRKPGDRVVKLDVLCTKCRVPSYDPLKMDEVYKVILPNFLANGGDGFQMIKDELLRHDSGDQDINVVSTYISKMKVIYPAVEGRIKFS
Experimental: Determine Inhibitor Activity Against CD73 in Cell Based Assay
CD73 expressing CHO-K1 cell clones were generated upon stable transfection of a plasmid expressing human CD73 under the control of CMV promoter. Cells were selected in Ham's F-12K (Kaighn's) media supplemented with 10% fetal bovine serum and 1 mg/ml G418 at 37° C. in a humidified incubator supplied with 5% CO2. The assays were performed as follows. Cells were seeded in a 96 well plate in 50 μL of culture media at a density of 1×10^4 per well. Compound at a maximal concentration of 5 mM was serially diluted 1:3 in DMSO for a total of 8 point titration. A 2 μL aliquot of each dilution point was added to […] culture media and 25 µL was added to each well, providing 10 μM compound at the maximum concentration point. AMP was diluted in culture media and 25 μL was added to each well with a final concentration of 150 μM. 4 wells containing 0.2% DMSO treated cells and AMP served as high controls and 4 wells containing media only with 0.2% DMSO and AMP served as low controls. After 4 hours of incubation, 20 μL of the supernatant was transferred to a 384 well plate. AMP level in supernatant was measured indirectly by adding 5 μL of CellTiter-Glo® 2.0 reagent and 5 μL of ATP with a final concentration of 1 μM. Following incubation of plate at room temperature for 30 minutes, luminescent signal was read on a Tecan plate reader. The percentage inhibition at individual concentrations relative to high and low controls was calculated. The data were analyzed by using nonlinear regression to generate ICso values.

[2] = biological target: T2, Human CD73 (amino acid residues 27-549) (Homo sapiens, UniProt P21589); assay: CD73 enzymatic assay (luciferase-based indirect assay, CellTiter-Glo); type: biochemical; conditions: 0.4 nM CD73, 150 μM AMP, 1 hour at room temperature
T2 construct: Human CD73 (amino acid residues 27-549); His tag (N); made in house; host or cells: E. coli
T2 sequence (P21589 27-549): T1 sequence (P21589 27-549)
Experimental: CD73 enzymatic activity was measured in a luciferase-based indirect assay using CellTiter-Glo® system from Promega. The luciferase reaction in the presence of ATP is inhibited by AMP, a primary substrate of CD73. Addition of CD73 enzyme to the reaction converts AMP to adenosine, and release the inhibition, producing a luminescent signal. Inhibition of CD73 leads to the decrease of this luminescent signal.
Human CD73 (amino acid residues 27-549) with N-Terminal His tag was purified in E. coli. All the assay components were prepared in 50 mM HEPEs buffer (pH 7.4) with 0.01% Tween-20. The CD73 enzymatic assay was performed using 0.4 nM CD73 and 150 μM AMP. 9.5 μL of CD73 protein and 9.5 μL of AMP were added to the wells of a 384 well plate containing lpL of various concentrations of test compound or DMSO vehicle and incubated for 1 hour at room temperature. 16 wells containing CD73, AMP and 5% DMSO served as high control. 16 wells containing AMP and 5% DMSO served as low control. Enzymatic reaction was stopped and AMP level was measured indirectly by adding 5 μL of CellTiter-Glo® 2.0 reagent and 5 μL of ATP with a final concentration of 1 μM. Following incubation of the plate at room temperature for 30 minutes, luminescent signal was read on a Tecan plate reader. The percentage inhibition at individual concentrations relative to high and low controls was calculated. The data were analyzed by using nonlinear regression to generate IC50 values.

| SMILES | IC50 [1] [µM] | IC50 [2] [µM] |
| --- | --- | --- |
| O=c1c(Cl)c(N2CC[C@@H](Oc3cc(C4CCNCC4)ccn3)C2)cnn1CCO [P-0023, (R)-4-chloro-2-(2-hydroxyethyl)-5-(3-((4-(piperidin-4-yl)pyridin-2-yl)oxy)pyrrolidin-1-yl)pyridazin-3(2H)-one] | 0.001 to 10 | 0.001 to 10 |
| O=c1[nH]ncc(N2CC[C@@H](Oc3cc(N4CCC5(CC4)CC(F)(F)C5)ccn3)C2)c1Cl [P-0024, (R)-4-chloro-5-(3-((4-(2,2-difluoro-7-azaspiro[3.5]nonan-7-yl)pyridin-2-yl)oxy)pyrrolidin-1-yl)pyridazin-3(2H)-one] | 0.001 to 10 | 0.001 to 10 |
| O=C(NC1CCOCC1)c1ccnc(O[C@@H]2CCN(c3cn[nH]c(=O)c3Cl)C2)c1 [P-0025, (R)-2-((1-(5-chloro-6-oxo-1,6-dihydropyridazin-4-yl)pyrrolidin-3-yl)oxy)-N-(tetrahydro-2H-pyran-4-yl)isonicotinamide] | 0.001 to 10 | 0.001 to 10 |
| Cc1nn(C2CCC2)c(C)c1-c1ccnc(O[C@@H]2CCN(c3cn[nH]c(=O)c3Cl)C2)c1 [P-0026, (R)-4-chloro-5-(3-((4-(1-cyclobutyl-3,5-dimethyl-1H-pyrazol-4-yl)pyridin-2-yl)oxy)pyrrolidin-1-yl)pyridazin-3(2H)-one] | 0.001 to 10 | 0.001 to 10 |
| Cc1nn(C(C)C)c(C)c1-c1ccnc(O[C@@H]2CCN(c3cn[nH]c(=O)c3Cl)C2)c1 [P-0027, (R)-4-chloro-5-(3-((4-(1-isopropyl-3,5-dimethyl-1H-pyrazol-4-yl)pyridin-2-yl)oxy)pyrrolidin-1-yl)pyridazin-3(2H)-one] | 0.001 to 10 | 0.001 to 10 |
| COC(=O)C1C2CCC1CN(c1ccnc(O[C@@H]3CCN(c4cn[nH]c(=O)c4Cl)C3)c1)C2 (stereo partly drawn) [P-0028, methyl 3-(2-(((R)-1-(5-chloro-6-oxo-1,6-dihydropyridazin-4-yl)pyrrolidin-3-yl)oxy)pyridin-4-yl)-3-azabicyclo[3.2.1]octane-8-carboxylate] | 0.001 to 10 | 0.001 to 10 |
| CS(=O)(=O)N1CC=C(c2ccnc(O[C@@H]3CCN(c4cn[nH]c(=O)c4Cl)C3)c2)CC1 [P-0029, (R)-4-chloro-5-(3-((1′-(methylsulfonyl)-1′,2′,3′,6′-tetrahydro-[4,4′-bipyridin]-2-yl)oxy)pyrrolidin-1-yl)pyridazin-3(2H)-one] | 10 to 100 | 0.001 to 10 |
| N#CCC1CCN(c2ccnc(O[C@@H]3CCN(c4cn[nH]c(=O)c4Cl)C3)c2)CC1 [P-0030, (R)-2-(1-(2-((1-(5-chloro-6-oxo-1,6-dihydropyridazin-4-yl)pyrrolidin-3-yl)oxy)pyridin-4-yl)piperidin-4-yl)acetonitrile] | 0.001 to 10 | 0.001 to 10 |
| O=c1[nH]ncc(N2CC[C@@H](Oc3cc(C4CCC(O)CC4)ccn3)C2)c1Cl (stereo partly drawn) [P-0031, (R)-4-chloro-5-(3-((4-(4-hydroxycyclohexyl)pyridin-2-yl)oxy)pyrrolidin-1-yl)pyridazin-3(2H)-one] | 0.001 to 10 | 0.001 to 10 |
| O=c1[nH]ncc(N2CC[C@@H](Oc3cc(C4=CCNC4)ccn3)C2)c1Cl [P-0032, (R)-4-chloro-5-(3-((4-(2,5-dihydro-1H-pyrrol-3-yl)pyridin-2-yl)oxy)pyrrolidin-1-yl)pyridazin-3(2H)-one] | 0.001 to 10 | 0.001 to 10 |
| Cc1nn(C2(CC#N)COC2)c(C)c1-c1ccnc(O[C@@H]2CCN(c3cn[nH]c(=O)c3Cl)C2)c1 [P-0033, (R)-2-(3-(4-(2-((1-(5-chloro-6-oxo-1,6-dihydropyridazin-4-yl)pyrrolidin-3-yl)oxy)pyridin-4-yl)-3,5-dimethyl-1H-pyrazol-1-yl)oxetan-3-yl)acetonitrile] | 0.001 to 10 | 0.001 to 10 |
| Cc1nn(CC23CC(C#N)(C2)C3)c(C)c1-c1ccnc(O[C@@H]2CCN(c3cnn(CCO)c(=O)c3Cl)C2)c1 [P-0034, (R)-3-((4-(2-((1-(5-chloro-1-(2-hydroxyethyl)-6-oxo-1,6-dihydropyridazin-4-yl)pyrrolidin-3-yl)oxy)pyridin-4-yl)-3,5-dimethyl-1H-pyrazol-1-yl)methyl)bicyclo[1.1.1]pentane-1-carbonitrile] | 0.001 to 10 | 0.001 to 10 |
